From US20220211877A1, “COMPOUND FOR INTRAOPERATIVE MOLECULAR BIOIMAGING, METHOD OF MAKING THE SAME, USE THEREOF IN INTRAOPERATIVE MOLECULAR BIOIMAGING AND SURGICAL METHOD COMPRISING INTRAOPERATIVE MOLECULAR BIOIMAGING” (Klinikum rechts der lsar der Techischen Universität München, priority 2018, published 2022)
Values belong to the compound of their own block, whether it stands above or below them. Where a SMILES comes first, the peptide text is derived from it. Side-chain parts run from the residue outwards. [ ]: non-standard residue; d: D form. The star is where a group is joined. IRDye800CW = CC1(C)C(/C=C/C2=C(Oc3ccc(S(=O)(=O)O)cc3)C(=C/C=C3/N(CCCCS(=O)(=O)O)c4ccc(S(=O)(=O)O)cc4C3(C)C)/CCC2)=[N+](CCCCCC(=O)*)c2ccc(S(=O)(=O)[O-])cc21; NMeK = CN[C@@H](CCCCN)C(=O)O; Ahx = NCCCCCC(=O)O

What was measured:
[1] = biodistribution by fluorescence intensity in HNSCC PDX mice
Protocol: Relying on fluorescence intensity measurements, the distribution and accumulation of FRX103 in the organism was determined over the time period shown.

[2] = biodistribution and nonspecific binding in control animals (control TX, sham TX, unoperated); conditions: for renal clearance: 6 h after injection
Protocol: Similarly, healthy oral epithelium was transplanted for control experiments.
Control experiments were performed with sham operations and transplantation with healthy control tissue, which were imaged with FRX110 and FRX109 as the control tracer.
The specificity of the binding was investigated in the in vivo model with the control tracer FRX109. FRX109 was visualized in mice with a sham graft (sham TX) of human carcinoma tissue (no tissue was transplanted).

αvβ8 = αvβ8 (Homo sapiens, UniProt P06756+P26012); test: solid-phase integrin binding assay; conditions: n = 2
Chain of αvβ8 (P06756 31-889 limits assumed): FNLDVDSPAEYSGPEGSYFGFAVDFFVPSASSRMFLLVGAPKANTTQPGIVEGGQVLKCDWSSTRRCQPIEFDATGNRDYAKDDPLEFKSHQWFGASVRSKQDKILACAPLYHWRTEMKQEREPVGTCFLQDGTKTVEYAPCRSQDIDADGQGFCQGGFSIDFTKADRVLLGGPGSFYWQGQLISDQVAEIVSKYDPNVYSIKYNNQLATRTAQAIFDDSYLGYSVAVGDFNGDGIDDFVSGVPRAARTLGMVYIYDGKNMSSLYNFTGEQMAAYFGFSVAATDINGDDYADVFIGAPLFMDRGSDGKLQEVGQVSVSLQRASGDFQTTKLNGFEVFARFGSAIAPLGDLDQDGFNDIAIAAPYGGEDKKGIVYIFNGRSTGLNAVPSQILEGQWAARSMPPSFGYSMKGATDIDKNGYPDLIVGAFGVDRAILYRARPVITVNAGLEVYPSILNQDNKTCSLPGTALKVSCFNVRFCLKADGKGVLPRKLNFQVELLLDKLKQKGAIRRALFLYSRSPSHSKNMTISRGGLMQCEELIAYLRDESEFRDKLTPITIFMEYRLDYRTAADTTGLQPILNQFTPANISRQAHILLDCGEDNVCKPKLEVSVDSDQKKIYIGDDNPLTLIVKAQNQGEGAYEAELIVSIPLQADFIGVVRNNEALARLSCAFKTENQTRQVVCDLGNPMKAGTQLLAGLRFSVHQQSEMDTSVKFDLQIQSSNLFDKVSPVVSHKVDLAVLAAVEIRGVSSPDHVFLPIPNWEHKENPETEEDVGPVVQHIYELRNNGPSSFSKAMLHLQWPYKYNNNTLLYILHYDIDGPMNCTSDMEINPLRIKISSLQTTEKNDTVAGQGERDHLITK
Chain of αvβ8 (P06756 891-992 partner limits assumed): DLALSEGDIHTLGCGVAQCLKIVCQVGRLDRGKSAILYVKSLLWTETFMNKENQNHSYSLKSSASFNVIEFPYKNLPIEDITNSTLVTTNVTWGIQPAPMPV
Chain of αvβ8 (P26012 43-684 limits assumed): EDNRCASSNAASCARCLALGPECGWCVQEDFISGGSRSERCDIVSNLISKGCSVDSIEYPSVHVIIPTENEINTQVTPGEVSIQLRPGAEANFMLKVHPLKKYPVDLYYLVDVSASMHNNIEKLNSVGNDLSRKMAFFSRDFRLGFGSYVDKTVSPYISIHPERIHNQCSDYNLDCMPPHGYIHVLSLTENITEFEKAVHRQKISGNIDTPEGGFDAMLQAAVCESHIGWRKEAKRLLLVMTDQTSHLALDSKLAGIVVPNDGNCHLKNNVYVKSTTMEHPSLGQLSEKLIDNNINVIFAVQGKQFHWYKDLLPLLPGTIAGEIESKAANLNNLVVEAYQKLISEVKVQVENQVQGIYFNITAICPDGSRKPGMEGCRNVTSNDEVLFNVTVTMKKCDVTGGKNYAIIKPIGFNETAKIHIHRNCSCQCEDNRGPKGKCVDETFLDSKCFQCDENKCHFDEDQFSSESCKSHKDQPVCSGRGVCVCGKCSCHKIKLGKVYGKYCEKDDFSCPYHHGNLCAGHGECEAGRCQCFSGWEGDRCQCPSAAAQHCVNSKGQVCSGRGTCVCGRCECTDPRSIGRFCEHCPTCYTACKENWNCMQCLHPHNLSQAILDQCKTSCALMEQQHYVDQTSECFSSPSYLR

αIIbβ3 = αIIbβ3 (Homo sapiens, UniProt P05106+P08514); test: solid-phase integrin binding assay; conditions: n = 2
Protocol: (§1) The integrin binding affinity and selectivity profile of the compounds was determined by a solid-phase binding assay as previously described.^48

αvβ5 = αvβ5 (Homo sapiens, UniProt P06756+P18084); test: solid-phase integrin binding assay; conditions: n = 2
Protocol: as §1

αvβ3 = αvβ3 (Homo sapiens, UniProt P05106+P06756); test: solid-phase integrin binding assay; conditions: n = 2
Chain of αvβ3 (P06756 31-889 limits assumed): as the sequence (P06756 31-889 limits assumed) above
Chain of αvβ3 (P06756 891-1048 partner limits assumed): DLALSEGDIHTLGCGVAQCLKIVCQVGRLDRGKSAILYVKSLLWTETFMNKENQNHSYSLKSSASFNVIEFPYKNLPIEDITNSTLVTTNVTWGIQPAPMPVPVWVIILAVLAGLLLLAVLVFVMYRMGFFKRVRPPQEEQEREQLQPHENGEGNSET
Chain of αvβ3 (P05106 27-788): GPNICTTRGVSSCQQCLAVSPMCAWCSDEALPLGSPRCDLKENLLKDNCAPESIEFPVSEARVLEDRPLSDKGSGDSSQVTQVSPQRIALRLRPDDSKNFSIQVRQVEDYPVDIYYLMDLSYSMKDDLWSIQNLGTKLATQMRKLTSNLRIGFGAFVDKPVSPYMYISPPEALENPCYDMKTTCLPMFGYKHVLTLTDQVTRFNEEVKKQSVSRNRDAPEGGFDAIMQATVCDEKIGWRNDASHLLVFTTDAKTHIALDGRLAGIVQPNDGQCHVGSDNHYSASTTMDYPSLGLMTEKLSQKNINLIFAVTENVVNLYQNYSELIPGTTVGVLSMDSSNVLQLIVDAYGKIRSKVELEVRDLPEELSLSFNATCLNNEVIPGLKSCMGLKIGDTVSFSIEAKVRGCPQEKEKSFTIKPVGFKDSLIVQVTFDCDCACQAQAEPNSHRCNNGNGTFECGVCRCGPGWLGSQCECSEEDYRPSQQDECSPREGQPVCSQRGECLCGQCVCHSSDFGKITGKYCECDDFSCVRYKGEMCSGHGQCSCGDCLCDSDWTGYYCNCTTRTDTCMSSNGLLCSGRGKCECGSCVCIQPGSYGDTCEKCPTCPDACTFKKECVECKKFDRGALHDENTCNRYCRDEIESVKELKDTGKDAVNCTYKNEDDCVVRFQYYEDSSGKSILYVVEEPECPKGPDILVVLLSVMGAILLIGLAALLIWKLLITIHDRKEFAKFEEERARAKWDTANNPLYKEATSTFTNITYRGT

αvβ6 = αvβ6 (Homo sapiens, UniProt P06756+P18564); test: solid-phase integrin binding assay; conditions: n = 2
Chain of αvβ6 (P06756 31-889 limits assumed): as the sequence (P06756 31-889 limits assumed) above
Chain of αvβ6 (P06756 891-992 partner limits assumed): as the sequence (P06756 891-992 partner limits assumed) above
Chain of αvβ6 (P18564 22-707 limits assumed): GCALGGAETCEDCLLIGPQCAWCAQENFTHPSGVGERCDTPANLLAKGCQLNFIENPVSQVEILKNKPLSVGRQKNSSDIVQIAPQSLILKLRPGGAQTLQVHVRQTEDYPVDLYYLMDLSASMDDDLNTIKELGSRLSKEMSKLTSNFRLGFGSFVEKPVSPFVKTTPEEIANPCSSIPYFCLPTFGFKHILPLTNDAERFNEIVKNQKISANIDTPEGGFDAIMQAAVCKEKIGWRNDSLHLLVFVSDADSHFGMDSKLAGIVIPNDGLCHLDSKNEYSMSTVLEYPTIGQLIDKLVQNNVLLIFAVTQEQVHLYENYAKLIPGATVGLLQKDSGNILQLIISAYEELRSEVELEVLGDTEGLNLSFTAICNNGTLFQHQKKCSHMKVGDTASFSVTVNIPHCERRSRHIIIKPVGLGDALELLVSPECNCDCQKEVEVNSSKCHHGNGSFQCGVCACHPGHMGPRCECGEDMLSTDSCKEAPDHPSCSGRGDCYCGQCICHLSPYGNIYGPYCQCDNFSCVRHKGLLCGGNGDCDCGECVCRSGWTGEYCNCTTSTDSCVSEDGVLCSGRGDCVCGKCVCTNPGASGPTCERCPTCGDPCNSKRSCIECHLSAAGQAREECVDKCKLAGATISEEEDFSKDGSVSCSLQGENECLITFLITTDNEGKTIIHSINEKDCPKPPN

α5β1 = α5β1 (Homo sapiens, UniProt P05556+P08648); test: solid-phase integrin binding assay; conditions: n = 2
Chain of α5β1 (P08648 42-894 limits assumed): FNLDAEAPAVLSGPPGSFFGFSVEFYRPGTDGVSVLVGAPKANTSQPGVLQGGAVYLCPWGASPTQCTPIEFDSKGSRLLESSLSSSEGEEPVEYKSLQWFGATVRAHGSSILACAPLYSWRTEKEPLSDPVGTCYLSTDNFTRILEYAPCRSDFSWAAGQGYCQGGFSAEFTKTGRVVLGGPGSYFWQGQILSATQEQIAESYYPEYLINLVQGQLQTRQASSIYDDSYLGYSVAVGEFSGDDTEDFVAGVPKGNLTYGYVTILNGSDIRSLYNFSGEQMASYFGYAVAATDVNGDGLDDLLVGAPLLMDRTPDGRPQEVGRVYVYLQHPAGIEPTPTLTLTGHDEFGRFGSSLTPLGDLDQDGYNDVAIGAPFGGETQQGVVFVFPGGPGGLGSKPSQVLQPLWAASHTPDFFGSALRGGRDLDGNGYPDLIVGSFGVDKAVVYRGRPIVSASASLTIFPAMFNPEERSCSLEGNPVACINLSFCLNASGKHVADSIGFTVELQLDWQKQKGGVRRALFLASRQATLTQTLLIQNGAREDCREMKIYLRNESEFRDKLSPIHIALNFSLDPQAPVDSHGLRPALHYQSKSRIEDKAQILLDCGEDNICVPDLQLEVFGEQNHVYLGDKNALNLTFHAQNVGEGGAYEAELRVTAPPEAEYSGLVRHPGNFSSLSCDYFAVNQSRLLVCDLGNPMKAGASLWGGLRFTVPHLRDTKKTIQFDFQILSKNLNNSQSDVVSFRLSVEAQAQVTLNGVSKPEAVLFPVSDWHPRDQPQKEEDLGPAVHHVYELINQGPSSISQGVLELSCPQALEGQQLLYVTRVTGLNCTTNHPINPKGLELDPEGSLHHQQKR
Chain of α5β1 (P08648 895-995 partner limits assumed): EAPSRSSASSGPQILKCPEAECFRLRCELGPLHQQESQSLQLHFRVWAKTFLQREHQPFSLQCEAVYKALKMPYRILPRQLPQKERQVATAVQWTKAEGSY
Chain of α5β1 (P05556 21-728 limits assumed): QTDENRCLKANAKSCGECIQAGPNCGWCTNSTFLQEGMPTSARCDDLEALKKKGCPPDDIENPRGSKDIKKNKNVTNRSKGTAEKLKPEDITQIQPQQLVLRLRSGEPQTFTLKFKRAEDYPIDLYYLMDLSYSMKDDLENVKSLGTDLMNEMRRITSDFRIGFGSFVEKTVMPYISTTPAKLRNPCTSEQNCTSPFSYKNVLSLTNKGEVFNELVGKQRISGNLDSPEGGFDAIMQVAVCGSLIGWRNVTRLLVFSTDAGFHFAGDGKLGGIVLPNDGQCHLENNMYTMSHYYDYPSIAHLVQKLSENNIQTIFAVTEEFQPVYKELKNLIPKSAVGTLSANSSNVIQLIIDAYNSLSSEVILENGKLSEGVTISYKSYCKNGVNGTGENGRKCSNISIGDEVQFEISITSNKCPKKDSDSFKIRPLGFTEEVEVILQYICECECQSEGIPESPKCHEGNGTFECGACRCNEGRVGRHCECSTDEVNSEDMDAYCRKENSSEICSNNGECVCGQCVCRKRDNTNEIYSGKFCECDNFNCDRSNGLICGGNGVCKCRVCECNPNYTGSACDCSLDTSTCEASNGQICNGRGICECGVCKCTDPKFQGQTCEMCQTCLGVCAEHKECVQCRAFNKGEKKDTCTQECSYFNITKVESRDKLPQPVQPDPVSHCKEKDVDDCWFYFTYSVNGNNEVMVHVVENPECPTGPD

invasive HNSCC tissue = test: molecular bioimaging in HNSCC PDX mouse model; format: in vivo, NOD/SCID mice
Protocol: An orthotopic HNSCC PDX (head and neck squamous cell carcinoma patient derived xenotransplant) mouse model was developed that allows the analysis of invasive, orthotropic human carcinoma tissue. HNSCC tissue samples were transplanted into the neck area of NOD/SCID mice. This provides epithelial derived carcinoma tissue in a mesenchymal tissue context to mimic the epithelial-mesenchymal interface between invasive carcinoma tissue and stroma. […]
Bioimgaing was performed relying on equipment described in ^42 using a 750 nm CW laser diode (BWF2-750-0, B & W Tek, Newark, Del., USA) with a maximum power of 300 mW was used to excite the fluorophores. […] The laser power was measured at a working distance of 15 cm at 85 mW/cm 2, which is lower than the maximum permissible exposure according to the standard of the American National Standards Institute (ANSI). A short-pass filter (E700SP, Chroma Technology, Rockingham, Vt., USA) was used to eliminate component of the field illumination NIRF signal to preclude interference between the fluorescence detection field and the field illumination light path (F1). […]
The measurements of the average fluorescence intensity/pixels were made in two regions of interests (ROIs). […]
The quotient ROI1/ROI2 of the average fluorescence intensity/pixel is given as tumor tissue to background ratio (TBR). […]

OVMZ6 cells = test: cell binding experiment, fluorescence microscopy; format: cell-based, human; conditions: fixed OVMZ6 cells (low αvβ6, high αvβ3), 10 μM
Source text: (§2) Human OSCC cell lines HN was purchased from the German Collection of Microorganisms and Cell Cultures, Braunschweig, Germany (DSMZ no. ACC 417 (HN) The HN cell line was established from a cervical lymph node metastasis of an invasive squamous cell carcinoma of the soft palate. The metastasis occurred 7 years after treatment of the primary tumour and metastasized to the lung and brain. ^49 As control cells, we used the human ovarian cancer cell line OVMZ6 with low integrin avb6 and high integrin αvβ3 expression. ^50 All cells were cultivated in Dulbecco's Modified Eagle's Medium (DMEM) (Sigma-Aldrich, St. Louis, Mo., USA), supplemented with 10% (v/v) fetal calf serum (FCS) (Gibco, Lifelechnologies™, Carlsbad, Calif., USA).
(§3) HN and OVMZ6 cells were cultivated for 24 h on fibronectin-coated microchamber slides at a density of 25×10^3/well, thereafter fixed in 2% (w/v) PFA for 15 min at r.t. and washed in PBS. The Cy5.5-conjugated compound OM_1231, dissolved in PBS, 5% (v/v) dimethyl sulfoxide (DMSO), was applied at a final concentration of 10 μM for 1 h at r.t., followed by 3 washes in PBS. […] As control peptide served the non-binding cycl(R^betaADfK) labelled via lysine side-chain NH2 group with Cy5.5 fluorescent dye (code OM_1224). After the incubation period, cells were washed 6 times in PBS and slides mounted. Fluorescence signal intensity was detected by the microscope Zeiss LSM 700 (Zeiss) as described above. Images were merged by applying for the fluorescence image the LUT “blue to red”: low intensity: blue; medium intensity: green; and high intensity: red.

HN cells = test: cell binding experiment, fluorescence microscopy; format: cell-based, human; conditions: for fluorescence signal intensity on cells: fixed HN cells, 10 μM, 1 h at r.t.
Source text: as §2, §3

[3] = 0-24 h post injectionem, FIG. 5b

- nonspecific accumulation in the area of transplantation ([2]; control TX (healthy epithelial grafting)): no nonspecific accumulation
Compound: CC(C)C[C@@H]1NC(=O)[C@H](CC(=O)O)NC(=O)CNC(=O)[C@H](CCCNC(=N)N)NC(=O)[C@H](Cc2ccccc2)NC(=O)[C@H](CCCCNC(=O)CCCCCNC(=O)CCCCC[N+]2=C(/C=C/C3=CC(=C/C=C4/N(C)c5ccc6ccccc6c5C4(C)C)/CCC3)C(C)(C)c3c2ccc2ccccc32)N(C)C(=O)[C@H]2CCCN2C(=O)[C@H](Cc2ccccc2)NC(=O)[C@H](C)NC1=O [FRX103, cyc(FRGDLAFp(NMe)K(Ahx-Cy7.5))]
- time p.i. of best ratio between specific signal and background signal ([1]; i.v., HNSCC PDX mice): 24 h
- accumulation in the area of carcinoma tissue ([1]; i.v., up to 24 h p.i., FIG. 5a): constant accumulation
- elimination after 24 h ([1]; mouse, in vivo, iv): does not show any elimination
- signal in liver and pancreas ([2]; mouse, in vivo): persistent signal

Compound: CC(C)C[C@@H]1NC(=O)[C@H](CC(=O)O)NC(=O)[C@H](C)NC(=O)[C@H](CCCNC(=N)N)NC(=O)[C@H](Cc2ccccc2)NC(=O)[C@H](CCCCNC(=O)CCCCCNC(=O)CCCCC[N+]2=C(/C=C/C3=C(Oc4ccc(S(=O)(=O)O)cc4)C(=C/C=C4/N(CCCCS(=O)(=O)O)c5ccc(S(=O)(=O)O)cc5C4(C)C)/CCC3)C(C)(C)c3cc(S(=O)(=O)[O-])ccc32)N(C)C(=O)[C@H]2CCCN2C(=O)[C@H](Cc2ccccc2)NC(=O)[C@H](C)NC1=O [FRX109, cyc(FRADLAFp(NMe)K(Ahx-IRDye ® 800CW))] (cyclo(FRADLAF[dP][NMeK]([Ahx-IRDye800CW])))
- IC50 (αvβ8): > 4000 nM
- IC50 (αIIbβ3): > 1000 nM
- IC50 (αvβ5): > 10 µM
- IC50 (αvβ3): > 10000 nM
- renal clearance ([2]; FIG. 5c): good renal clearance
- IC50 (αvβ6): 122 ± 12 nM
- IC50 (α5β1): > 1000 nM

Compound: CC(C)C[C@@H]1NC(=O)[C@H](CC(=O)O)NC(=O)CNC(=O)[C@H](CCCNC(=N)N)NC(=O)[C@H](Cc2ccccc2)NC(=O)[C@H](CCCCNC(=O)CCCCCNC(=O)CCCCC[N+]2=C(/C=C/C3=C(Oc4ccc(S(=O)(=O)O)cc4)C(=C/C=C4/N(CCCCS(=O)(=O)O)c5ccc(S(=O)(=O)O)cc5C4(C)C)/CCC3)C(C)(C)c3cc(S(=O)(=O)[O-])ccc32)N(C)C(=O)[C@H]2CCCN2C(=O)[C@H](Cc2ccccc2)NC(=O)[C@H](C)NC1=O [FRX110, cyc(FRGDLAFp(NMe)K(Ahx-IRDye ® 800CW))]
- IC50 (αvβ8): 129 ± 36 nM
- IC50 (αvβ5): > 10 µM
- TBR [1, 3]: 1.0
- unspecific accumulation or binding [1, 3]: does not reveal unspecific accumulation or binding
- time to elimination of unbound compound via the renal system ([1]; i.v.): ≤ 24 h
- IC50 (αvβ3): 408 ± 61 nM
- renal clearance ([2]; FIG. 5c): good renal clearance
- tissue to background (TBR) ratio ([2]; control animals, FIG. 5c): low
- unspecific tracer enhancement ([2]; control animals, FIG. 5c): without unspecific tracer enhancement
- IC50 (αvβ6): 2.2 ± 0.2 nM
- binding to invasive growing carcinoma xenotransplants (invasive HNSCC tissue; 1st to 12th week p. TX): specific binding
- tissue to background (TBR) ratio (invasive HNSCC tissue; 5th week p. TX, i.v. tail vein, FIG. 4a): high
- IC50 (α5β1): 37 ± 6 nM

- IC50 (αvβ8): 234 ± 33 nM
- IC50 (αvβ6): 27 ± 2 nM
Compound: CC(C)C[C@@H]1NC(=O)[C@H](CC(=O)O)NC(=O)CNC(=O)[C@H](CCCNC(=N)N)NC(=O)[C@H](Cc2ccccc2)NC(=O)[C@H](CCCCNC(=O)CCCCCNC(=O)CCCCC[N+]2=C(/C=C/C=C/C=C3/N(C)c4ccc5ccccc5c4C3(C)C)C(C)(C)c3c2ccc2ccccc32)N(C)C(=O)[C@H]2CCCN2C(=O)[C@H](Cc2ccccc2)NC(=O)[C@H](C)NC1=O [OM1231, cyc(FRGDLAFp(NMe)K(Ahx-Cy5.5))]
- recognition of cellular integrin αvβ3 (OVMZ6 cells): did not recognize cellular integrin αvβ3
- fluorescence signal intensity after blocking (HN cells; HN cells, unlabeled OM_1204 at 10-fold molar excess 1 h prior to OM_1231 (10 μM)): strong reduction in fluorescence signal intensity
- fluorescence signal intensity on cells (HN cells): strong fluorescence signal intensity on cell membranes

Compound: cyc(R-betaAla-D-f-K(Ahx-Cy5.5)) [OM1224]
- fluorescence signal intensity on cells (HN cells): did not result in fluorescence signal intensity
